The values below are quoted from earlier work in patent publication US6924277B2, “Cyclized benzamide neurokinin antagonists for use in therapy” (AstraZeneca AB, priority 2000, dated 2005).

The conditions of data set [1]: Elevated plus-maze.
For data set [2] the following is noted: Forced swim test (depression model); only at 30 mg/kg bid; Vassout et al, Neuropeptides 26/S1: 38, 1994.
For data set [3] the following is noted: Light-dark box.
For data set [4], the system named is Marmoset. The settings on record: Marmoset human intruder; Walsh et al., Psychopharmacology 121: 186-191, 1995.
Setting [5] is: Stratton et al., Eur. J. Pharmacol. 250: R11-12, 1993.
[6] abbreviates: Teixeira et al., Eur J Pharmacol 311(1): 7-14, 1996.
Setting [7] is: Walsh et al., Psychopharmacology 121: 186-191, 1995.

Like-named read-outs stand apart in the source and are kept apart here. Peptide text beside a SMILES is read from it.

For the compound `Cc1cc(C)cc(C(=O)N2CC[C@H](NCc3ccnc4ccccc34)C[C@H]2Cc2ccccc2)c1` [CGP 49823], the Outcome entry in data set [1] (Vassout et al, Neuropeptides 26/S1: 38, 1994) was “inactive”; the Outcome result (Social interaction test, Vassout et al, Neuropeptides 26/S1: 38, 1994) was “anxiolytic”; the Outcome entry (Social interaction, File, Pharm Bio B 58(3): 747-752, 1997) was “anxiolytic”; the Outcome result in data set [2] is listed as “antidepressant”.
Turning to `C[C@H](NC(=O)CNC(=O)C1CCCCC1)C(=O)N[C@H](Cc1c[nH]c2ccccc12)C(=O)N[C@@H](Cc1ccccc1)C(=O)N(C)C` [GR100679] (HELM PEPTIDE1{[O=C(C1CCCCC1)[*:2]].G.A.[dW].F.[CN(C)[*:1]]}$$$$V2.0), the Outcome result in data set [3] (setting [5]) is given as “anxiolytic”.
In the case of `CN(Cc1ccccc1)C(=O)[C@H](Cc1ccc2ccccc2c1)NC(=O)[C@@H]1C[C@@H](O)CN1C(=O)c1cn(C)c2ccccc12` [FK888], the Outcome result in data set [1] (setting [6]) is “anxiolytic”.
Turning to `COC1(C[S@@+]([O-])c2ccccc2)CCN(CCc2c[nH]c3ccc(F)cc23)CC1` [GR159897], the Outcome entry in data set [3] (setting [7]) and in data set [4] was “anxiolytic” throughout.
Take `CC(=O)NC1(c2ccccc2)CCN(CC[C@H](CN(C)C(=O)c2ccccc2)c2ccc(Cl)c(Cl)c2)CC1` [SR48968]: the Outcome result in data set [1] (setting [6]), in data set [3] (setting [5]), in data set [3] (setting [7]) and in data set [4] was “anxiolytic” throughout.
